From the NIST ThermoML archive (doi:10.1016/j.fluid.2017.06.022)

Assay: xn = mol fraction of the nth substance listed
Settings: Liquid, Bellows volumetry

C=CC [propene] + Cc1ccccc1
Settings	mass density [kg/m3]
422.8 K, 6300 kPa, x1 = 0.7612	383
422.8 K, 6800 kPa, x1 = 0.7612	392.4
422.8 K, 7500 kPa, x1 = 0.7612	405.5
422.8 K, 8900 kPa, x1 = 0.7612	424.5
422.8 K, 10600 kPa, x1 = 0.7612	441.8
422.8 K, 15400 kPa, x1 = 0.7612	476.7
422.8 K, 17400 kPa, x1 = 0.7612	484.1
422.8 K, 24400 kPa, x1 = 0.7612	508.8
422.8 K, 31000 kPa, x1 = 0.7612	527.4
422.8 K, 37800 kPa, x1 = 0.7612	543.1
422.8 K, 44900 kPa, x1 = 0.7612	556.7
422.8 K, 51600 kPa, x1 = 0.7612	566.8
422.8 K, 58200 kPa, x1 = 0.7612	576.2
422.8 K, 63200 kPa, x1 = 0.7612	583.4
422.8 K, 67200 kPa, x1 = 0.7612	588.5
424 K, 4500 kPa, x1 = 0.53	514
424 K, 4800 kPa, x1 = 0.53	516.1
424 K, 5300 kPa, x1 = 0.53	519
424 K, 5900 kPa, x1 = 0.53	522.7
424 K, 7100 kPa, x1 = 0.53	529
424 K, 8700 kPa, x1 = 0.53	535.9
424 K, 10400 kPa, x1 = 0.53	543
424 K, 17000 kPa, x1 = 0.53	563.7
424 K, 24000 kPa, x1 = 0.53	581.4
424 K, 30500 kPa, x1 = 0.53	594.5
425.2 K, 1300 kPa, x1 = 0.1159	668.8
425.2 K, 1600 kPa, x1 = 0.1159	669.7
425.2 K, 2200 kPa, x1 = 0.1159	671
425.2 K, 3200 kPa, x1 = 0.1159	673.2
425.2 K, 5400 kPa, x1 = 0.1159	678.2
425.2 K, 7000 kPa, x1 = 0.1159	681.3
425.2 K, 10300 kPa, x1 = 0.1159	688.2
425.2 K, 17100 kPa, x1 = 0.1159	700.5
425.2 K, 24000 kPa, x1 = 0.1159	712.3
425.2 K, 30700 kPa, x1 = 0.1159	721.9
425.2 K, 37600 kPa, x1 = 0.1159	730.7
425.2 K, 44700 kPa, x1 = 0.1159	738.6
425.2 K, 51400 kPa, x1 = 0.1159	745.7
425.2 K, 58400 kPa, x1 = 0.1159	752.3
425.2 K, 63100 kPa, x1 = 0.1159	756.7
425.2 K, 67000 kPa, x1 = 0.1159	760.1
474.3 K, 2200 kPa, x1 = 0.1159	604.5
474.3 K, 2900 kPa, x1 = 0.1159	607.4
474.3 K, 3700 kPa, x1 = 0.1159	610.3
474.3 K, 5300 kPa, x1 = 0.1159	616.2
474.3 K, 7200 kPa, x1 = 0.1159	622.2
474.3 K, 10500 kPa, x1 = 0.1159	632.3
474.3 K, 13900 kPa, x1 = 0.1159	641.4
474.3 K, 17400 kPa, x1 = 0.1159	650.5
474.3 K, 20400 kPa, x1 = 0.1159	657.2
474.3 K, 23700 kPa, x1 = 0.1159	664.4
474.3 K, 31100 kPa, x1 = 0.1159	678.2
474.3 K, 37400 kPa, x1 = 0.1159	688.7
474.3 K, 38000 kPa, x1 = 0.1159	689.6
474.3 K, 44800 kPa, x1 = 0.1159	700.1
474.3 K, 51300 kPa, x1 = 0.1159	708.8
474.4 K, 6700 kPa, x1 = 0.53	412.3
474.4 K, 7200 kPa, x1 = 0.53	423.9
474.4 K, 8100 kPa, x1 = 0.53	437.9
474.4 K, 9200 kPa, x1 = 0.53	450.2
474.4 K, 10700 kPa, x1 = 0.53	464.3
474.4 K, 13800 kPa, x1 = 0.53	487.2
474.4 K, 18000 kPa, x1 = 0.53	509
474.4 K, 23800 kPa, x1 = 0.53	531.7
474.4 K, 31300 kPa, x1 = 0.53	551.8
474.4 K, 37900 kPa, x1 = 0.53	566.1
474.4 K, 44400 kPa, x1 = 0.53	579
474.4 K, 51500 kPa, x1 = 0.53	591.3
474.4 K, 58400 kPa, x1 = 0.53	602.1
474.4 K, 63100 kPa, x1 = 0.53	608.9
474.4 K, 67200 kPa, x1 = 0.53	614.2
474.8 K, 7900 kPa, x1 = 0.7612	213.2
474.8 K, 8500 kPa, x1 = 0.7612	232.7
474.8 K, 9100 kPa, x1 = 0.7612	257.3
474.8 K, 9800 kPa, x1 = 0.7612	279.8
474.8 K, 10600 kPa, x1 = 0.7612	304.4
474.8 K, 11700 kPa, x1 = 0.7612	333.8
474.8 K, 12100 kPa, x1 = 0.7612	337.7
474.8 K, 14600 kPa, x1 = 0.7612	374.6
474.8 K, 17400 kPa, x1 = 0.7612	402.7
474.8 K, 24200 kPa, x1 = 0.7612	442.3
474.8 K, 31800 kPa, x1 = 0.7612	475
474.8 K, 37900 kPa, x1 = 0.7612	493.8
474.8 K, 44600 kPa, x1 = 0.7612	511.3
474.8 K, 51500 kPa, x1 = 0.7612	527.1
474.8 K, 58300 kPa, x1 = 0.7612	540
474.8 K, 63100 kPa, x1 = 0.7612	547.8
474.8 K, 67300 kPa, x1 = 0.7612	553.9
505.4 K, 7200 kPa, x1 = 0.53	291.1
505.4 K, 7700 kPa, x1 = 0.53	316.5
505.4 K, 8000 kPa, x1 = 0.53	328
505.4 K, 8700 kPa, x1 = 0.53	355.4
505.4 K, 9500 kPa, x1 = 0.53	376.8
505.4 K, 10600 kPa, x1 = 0.53	396.8
505.4 K, 13800 kPa, x1 = 0.53	435.7
505.4 K, 17400 kPa, x1 = 0.53	462.3
505.4 K, 24200 kPa, x1 = 0.53	495.4
505.4 K, 31500 kPa, x1 = 0.53	523.8
505.4 K, 37900 kPa, x1 = 0.53	540.2
505.4 K, 44600 kPa, x1 = 0.53	554.8
505.4 K, 51400 kPa, x1 = 0.53	568
505.4 K, 58400 kPa, x1 = 0.53	579.6
505.4 K, 62900 kPa, x1 = 0.53	587.4
505.4 K, 66800 kPa, x1 = 0.53	592.6
554.4 K, 4700 kPa, x1 = 0.1159	442.2
554.4 K, 5300 kPa, x1 = 0.1159	460
554.4 K, 6000 kPa, x1 = 0.1159	475.7
554.4 K, 6600 kPa, x1 = 0.1159	486
554.4 K, 7200 kPa, x1 = 0.1159	493.7
554.4 K, 9400 kPa, x1 = 0.1159	515.7
554.4 K, 10800 kPa, x1 = 0.1159	526.4
554.4 K, 17800 kPa, x1 = 0.1159	567.8
554.4 K, 24100 kPa, x1 = 0.1159	591.2
554.4 K, 30900 kPa, x1 = 0.1159	610.7
554.4 K, 37900 kPa, x1 = 0.1159	626.5
554.4 K, 44500 kPa, x1 = 0.1159	640.2
554.4 K, 51800 kPa, x1 = 0.1159	653
554.4 K, 58200 kPa, x1 = 0.1159	663.6
554.4 K, 63300 kPa, x1 = 0.1159	671.5
554.4 K, 67100 kPa, x1 = 0.1159	676.8
